Assay results taken from patent publication US20120282266A1, “ANTI-NEOPLASTIC USES OF ARTEMIN ANTAGONISTS” (AUCKLAND UNISERVICES LIMITED, priority 2009, published 2012).

Experiments:
ARTN = assay: Western blot for ARTN protein expression in BT549 and MDA-MB-231 cell pairs; assay type: cell-based, human; conditions: BT549 wild type cells, with paclitaxel vs without paclitaxel
Experimental: Western blot analysis was performed as described previously (Liu and Lobie, 2007) using the following antibodies: goat anti-artemin polyclonal antibody (R&D systems, Minneapolis, Minn.) and mouse anti-β-Actin monoclonal antibody (Sigma, St Louis, Mo.).
Western blot analysis was performed as described above in Example 1.
Reagents, Western blot analysis, and cell function and viability assays were all done as described above in Example 2.

BT549 PTX Res cells = assay: Cell function assays (monolayer viability, soft agar colony formation, 3D matrigel growth), BT549-PTX Res; assay type: cell-based
Experimental: (§1) For soft agar colony formation assay, cells were cultured in 96-well plates first covered with a layer of agar (0.5%). Cells were grown in medium containing 10% FBS. 5×10^3 cells were seeded into 100 μl 0.35% agarose and onto the 0.5% agarose base layer. 100 μl serum-supplemented medium containing drug or antibody was added on the top and changed every 3 days. The plates were incubated at 37° C. in a humidified incubator. After 10 days, alarmarBlue® was added (1:10 volume reagent, Invitrogen) and incubated at 37° C. for 4 hours, followed by measurement of fluorescence with excitation wavelength at 530 nm and emission wavelength at 590 nm.
For the 3D Matrigel™ culture, monolayer grown cells were harvested by trypsinization, taken up in the complete medium, and separated into single-cell suspension by several passages through a Pasteur pipette. After this, 50 μl complete medium containing 5,000 cells was added to 150 μl of growth factor reduced Matrigel™ (Becton Dickinson, Bedford, Mass.) diluted 1:1 with complete media with 20% FBS. […] Organoid formation was counted in randomly chosen fields with light microscopy. […]
Cell viability, soft agar colony formation assay and 3D matrigel growth assays were performed as described above in Example 1. For the cell viability assay, 3000 cells were seeded into 100 ul media(2% FBS) and every 24 h viability was determined.

artemin = assay: Artemin expression by semi-quantitative RT-PCR and Western blot in TAMS/TAMR cells; assay type: cell-based, human; conditions: 1 μM tamoxifen, 72 hours
Experimental: Total RNA was isolated from cultured cells with Trizol reagent (Invitrogen) at 1 ml/10 cm2 according to the manufacturer's instructions. RNA was resuspended in diethyl pyrocarbonate (DEPC)-treated nuclease-free water. RNA samples were further treated with DNase I for 30 min at 37° C. The reaction was stopped by addition of 25 mM EDTA and incubation at 65° C. for 15 min. RNA samples were then purified by extraction in phenol/chloroform (pH 5.2, phenol:chloroform:isoamyl alcohol at 25:24:1) followed by an additional chloroform extraction and ethanol precipitation. Quantification and purity of the RNA was assessed by A260/A280 absorption, and RNA quality was assessed by agarose gel electrophoresis. RNA samples with ratios of A260/A280 greater than 1.6 were stored at −80° C. for further analysis.
One-step reverse transcription (RT)-PCR kit (Qiagen) was used to determine the presence of artemin transcript using a pair of primers: 5′-[…]-3 (forward; SEQ ID NO: 41) and 5′-[…]-3′ (reverse; SEQ ID NO: 42). For RT-PCR, the following procedure was employed. To start, 1 μg of total RNA was diluted to 0.1 μg/μl to minimize the variation of sample handling. This dilution was treated by DNase I for 15 min, followed by inactivation of DNase by adding EDTA to 5 mM and heating to 70° C. for 15 min. […]

[1] = test system: TAMR cells (tamoxifen resistant MCF-7); assay: Soft agar colony formation (anchorage independent growth), TAMR cells; assay type: cell-based, human; conditions: 1 μM tamoxifen alone, 10 days
Experimental: as §1
To perform soft agar colony formation assays, 50 μl of 0.5% agarose in serum containing medium was plated onto each well of 96-well flat-bottom microplates, as a base agar layer. Next, 5×10^3 cells in a […] mixture of 0.35% agarose in serum containing medium were plated onto the base layer. Subsequently, 100 μl of the medium was added to prevent drying of the agarose gels. For antibody treatment, the antibodies at the indicated concentrations were added into the top agar layer and the culture medium to ensure the complete exposure of cells to antibodies. […] The plate was shaken briefly and then read at 595 nm (test wavelength) and 690 nm (reference wavelength) using the Synergy™ 2 Multi-Mode Microplate Reader (BioTek instruments, Inc., Vermont, USA).

[2] = test system: TAMR cells (tamoxifen resistant MCF-7); assay: Cell number growth assay in estrogen free medium, TAMR cells; assay type: cell-based, human; conditions: 1 μM tamoxifen, 7 days
Experimental: (§2) For estrogen-free cell culture, MCF-7 cells were cultured in phenol red free RPMI-1640 supplemented with 10% dextran coated charcoal stripped fetal bovine serum (CS-FBS) for 3 days before estrogen or antiestrogen treatment. The tamoxifen resistant (TAMR) cell line was established as described by Shaw et al. (2006). Briefly, the parental MCF-7 cells were continuously exposed for 6 months to 1 μM tamoxifen in phenol red free RPMI 1640 medium containing 10% CS-FBS until the cells developed resistance to the growth inhibitory effect of tamoxifen. MCF-7 cells sensitive to tamoxifen, cultured in the same medium without tamoxifen, were designated as tamoxifen sensitive (TAMS) cells. Cells were seeded onto 6-well plates at a density of 5×10^4 cells per well, in triplicate, in 3 ml of complete medium containing 10% or 0.2% FBS. Cells were cultured under these conditions for up to 10 days with medium changed every other day until harvesting. To compare the cell proliferation rate, the total cell number in each well was quantified with a haemocytometer every 2 days. Cell viability was assessed by using trypan blue.

[3] = test system: TAMS cells (tamoxifen sensitive MCF-7); assay: Cell number growth assay in estrogen free medium, TAMS cells; assay type: cell-based, human; conditions: 1 μM tamoxifen, 7 days
Experimental: as §2

Structure (SMILES)	ARTN expression (ARTN)	difference in sensitivity to paclitaxel, resistant subline vs parental line (BT549 PTX Res cells; BT549-PTX Res vs parental BT549) [fold]	sensitivity to paclitaxel in monolayer proliferation, colony formation in soft agar and 3D matrigel growth (BT549 PTX Res cells; paclitaxel resistant cells compared to paclitaxel sensitive cells)	artemin expression (mRNA and protein) (artemin; TAMR cells)	artemin expression (mRNA and protein) (artemin; TAMS cells)	colony formation in soft agar [1]	growth of TAMR cells [2]	growth of TAMS cells [3]
CC(=O)O[C@H]1C(=O)[C@@]2(C)[C@H]([C@H](OC(=O)c3ccccc3)[C@]3(O)C[C@H](OC(=O)[C@H](O)[C@@H](NC(=O)c4ccccc4)c4ccccc4)C(C)=C1C3(C)C)[C@]1(OC(C)=O)CO[C@@H]1C[C@@H]2O [paclitaxel]	increased ARTN expression	~2	less sensitivity to paclitaxel					
CC/C(=C(\c1ccccc1)c1ccc(OCCN(C)C)cc1)c1ccccc1 [tamoxifen]				retained elevated artemin expression	markedly abrogated artemin expression	did not affect colony formation	loss of response to E2 and of tamoxifen sensitivity	retained the response to E2 and tamoxifen sensitivity
